Data taken from US12522597B2, “Methods and compositions for modulating splicing” (Skyhawk Therapeutics, Inc., priority 2019, dated 2026).
Like-named read-outs stand apart in the source and are kept apart here.

Assays:
[1] = tested on: Huntingtin (HTT) transcripts; assay: Quantitative splicing assay (HTT), qPCR; assay type: cell-based; settings: Homo sapiens, GM04724 (CAG 70/20) Huntington's disease patient lymphoblasts, 24 h
Description: GM04724 (CAG 70/20) Huntington's disease patient lymphoblasts (Coriell) are plated in 96-wel v-bottom plates at 50,000 cells/well. Immediately after plating, cells are dosed with compound for 24 h at concentrations ranging from 2.5 uM to 0.15 nM (0.1% DMSO). Treated cells are lysed and cDNA synthesized using the Fast Advanced Cells-to-Ct kit (Thermofisher A35378) according to the manufacturer's instructions. 2 uL of each cDNA are used in qPCR reactions to confirm the compound-induced inclusion of a cryptic exon within intron 49 of the Huntingtin (HTT) transcripts. The qPCR reactions are prepared in 384-well plates in 10 uL volume, using TaqMan™ Fast Advanced Master Mix [ThermoFisher; 4444965] with primers and probes shown in the table below. Reactions are run in a Quant Studio 6 qPCR instrument with default settings.

mHTT protein = mHTT protein assay (2B7-MW1, Mesoscale Discovery); assay type: cell-based, human; settings: GM04724 (CAG 70/20) Huntington's disease patient lymphoblast cells, 48 hours, 2B7-MW1 MSD; read-out: HTT Potency - Protein EC50 mHTT (average)
Outline: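 GM04724 Huntington's patient lymphoblasts (CAG 70/20) were treated for 48 h at 10 μM to 0.6 nM. mHTT was quantified by 2B7-MW1 MSD immunoassay, whose signal depends on polyQ expansion and HTT fragment size. Viability was run on a parallel plate by CellTiter-Glo.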

[2] = tested on: MDR1-MDCK cell monolayers; assay: MDCK-MDR1 permeability assay (BBB penetration potential); assay type: in vitro ADME; settings: dog, MDCK-MDR1, 120 min, 5 μM, pH 7.4
Description: (§1) Each determination is performed in duplicate. […] Analytical conditions are outlined below.

MDR1 = assay: as above; assay type: in vitro ADME; settings: dog; for efflux ratio at 120 min, 5 μM: MDCK-MDR1, pH 7.4, MDCK-MDR1: Efflux; for Papp A→B at 120 min, 5 μM: MDCK-MDR1, pH 7.4, MDCK-MDR1: Papp A-B; for Papp B→A at 120 min, 5 μM: MDCK-MDR1, pH 7.4, MDCK-MDR1: Papp B-A
Description: as §1

[3] = qPCR HTTex49_50, read-out: HTT Potency - Splicing: E49-50 EC50 (average)
[4] = qPCR cryptic exon 49b inclusion, read-out: HTT Potency - Splicing: E49b EC50 (average)

For `Oc1cc(-c2cn[nH]c2)c(F)cc1-c1ccc(O[C@H]2C[C@@H]3CCC[C@@H](N3)[C@H]2F)nn1` (single isomer, unassigned) [56-ENT2], the EC50 [1, 3] was 0.01 to 15 nM, the EC50 [1, 4] was 0.01 to 15 nM and the EC50 (mHTT protein) was 0.01 to 15 nM. The “MDCK-MDR1: % Recov A-B” value [2] was 68%, the “MDCK-MDR1: % Recov B-A” value [2] was 79% and the efflux ratio at 120 min, 5 μM (MDR1) was 13. For the same molecule, the Papp A→B at 120 min, 5 μM (MDR1) was 2.69 ×10⁻⁶ cm/s and the Papp B→A at 120 min, 5 μM (MDR1) was 36 ×10⁻⁶ cm/s.
For `Cn1ccc(-c2cc(O)c(-c3ccc(O[C@@H]4C[C@H]5CCC[C@H](N5)[C@@H]4F)nn3)cc2F)cc1=O` (single isomer, unassigned) [58-ENT1], the EC50 [1, 3] was 16 to 50 nM, the EC50 [1, 4] was 16 to 50 nM and the EC50 (mHTT protein) was 0.01 to 15 nM. For the same molecule, the “MDCK-MDR1: % Recov A-B” value [2] was 97%, the “MDCK-MDR1: % Recov B-A” value [2] was 103% and the efflux ratio at 120 min, 5 μM (MDR1) was 49. The Papp A→B at 120 min, 5 μM (MDR1) was 0.92 ×10⁻⁶ cm/s and the Papp B→A at 120 min, 5 μM (MDR1) was 45.1 ×10⁻⁶ cm/s.
`Cn1ccc(-c2cc(O)c(-c3ccc(O[C@H]4C[C@@H]5CCC[C@@H](N5)[C@H]4F)nn3)cc2F)cc1=O` (single isomer, unassigned) [58-ENT2] showed an EC50 [1, 3] of 16 to 50 nM, an EC50 [1, 4] of 16 to 50 nM and an EC50 (mHTT protein) of 0.01 to 15 nM. The “MDCK-MDR1: % Recov A-B” value [2] was 83%, the “MDCK-MDR1: % Recov B-A” value [2] was 90% and the efflux ratio at 120 min, 5 μM (MDR1) was 47. For the same molecule, the Papp A→B at 120 min, 5 μM (MDR1) was 1.17 ×10⁻⁶ cm/s and the Papp B→A at 120 min, 5 μM (MDR1) was 55.1 ×10⁻⁶ cm/s.
In the case of `Cn1cc(-c2ccc(-c3ccc(O[C@@H]4C[C@H]5CC[C@H](N5)[C@@H]4F)nn3)c(O)c2)cn1` (single isomer, unassigned) [60-ENT1], the EC50 [1, 3] is reported as 51 to 100 nM, the EC50 [1, 4] is reported as 16 to 50 nM and the EC50 (mHTT protein) is reported as 16 to 50 nM. For the same molecule, the “MDCK-MDR1: % Recov A-B” value [2] was 68%, the “MDCK-MDR1: % Recov B-A” value [2] was 84% and the efflux ratio at 120 min, 5 μM (MDR1) was 4. For the same molecule, the Papp A→B at 120 min, 5 μM (MDR1) was 7.46 ×10⁻⁶ cm/s and the Papp B→A at 120 min, 5 μM (MDR1) was 30.5 ×10⁻⁶ cm/s.
With `Cn1cc(-c2ccc(-c3ccc(O[C@H]4C[C@@H]5CC[C@@H](N5)[C@H]4F)nn3)c(O)c2)cn1` (single isomer, unassigned) [60-ENT2] the EC50 [1, 3] was 16 to 50 nM, the EC50 [1, 4] was 16 to 50 nM and the EC50 (mHTT protein) was 51 to 100 nM. The “MDCK-MDR1: % Recov A-B” value [2] was 67%, the “MDCK-MDR1: % Recov B-A” value [2] was 78% and the efflux ratio at 120 min, 5 μM (MDR1) was 4. For the same molecule, the Papp A→B at 120 min, 5 μM (MDR1) was 8.12 ×10⁻⁶ cm/s and the Papp B→A at 120 min, 5 μM (MDR1) was 31.3 ×10⁻⁶ cm/s.
`Cn1cc(-c2cc(O)c(-c3ccc(O[C@@H]4C[C@H]5CC[C@H](N5)[C@@H]4F)nn3)cc2F)cn1` (single isomer, unassigned) [61-ENT1] was tested, and the EC50 [1, 3] was 16 to 50 nM, the EC50 [1, 4] was 0.01 to 15 nM and the EC50 (mHTT protein) was 16 to 50 nM. For the same molecule, the “MDCK-MDR1: % Recov A-B” value [2] was 43%, the “MDCK-MDR1: % Recov B-A” value [2] was 79% and the efflux ratio at 120 min, 5 μM (MDR1) was 3. For the same molecule, the Papp A→B at 120 min, 5 μM (MDR1) was 4.83 ×10⁻⁶ cm/s and the Papp B→A at 120 min, 5 μM (MDR1) was 13.8 ×10⁻⁶ cm/s.
For `Cn1cc(-c2cc(O)c(-c3ccc(O[C@H]4C[C@@H]5CC[C@@H](N5)[C@H]4F)nn3)cc2F)cn1` (single isomer, unassigned) [61-ENT2], the EC50 [1, 3] was 16 to 50 nM, the EC50 [1, 4] was 0.01 to 15 nM and the EC50 (mHTT protein) was 0.01 to 15 nM. The “MDCK-MDR1: % Recov A-B” value [2] was 36%, the “MDCK-MDR1: % Recov B-A” value [2] was 71% and the efflux ratio at 120 min, 5 μM (MDR1) was 3. It also gave a Papp A→B at 120 min, 5 μM (MDR1) of 4.5 ×10⁻⁶ cm/s and a Papp B→A at 120 min, 5 μM (MDR1) of 12.2 ×10⁻⁶ cm/s.
Molecule `Cn1cc(-c2cc(O)c(-c3ccc(O[C@@H]4C[C@H]5CCC[C@H](N5)[C@@H]4F)nn3)cn2)cn1` (single isomer, unassigned) [64-ENT1] has an EC50 [1, 3] of 501 to 10000 nM, an EC50 [1, 4] of 501 to 10000 nM and an EC50 (mHTT protein) of 501 to 10000 nM. The “MDCK-MDR1: % Recov A-B” value [2] was 99%, the “MDCK-MDR1: % Recov B-A” value [2] was 101% and the efflux ratio at 120 min, 5 μM (MDR1) was 68. For the same molecule, the Papp A→B at 120 min, 5 μM (MDR1) was 0.18 ×10⁻⁶ cm/s and the Papp B→A at 120 min, 5 μM (MDR1) was 12.4 ×10⁻⁶ cm/s.
Molecule `Cn1cc(-c2cc(O)c(-c3ccc(O[C@H]4C[C@@H]5CCC[C@@H](N5)[C@H]4F)nn3)cn2)cn1` (single isomer, unassigned) [64-ENT2] has an EC50 [1, 3] of 501 to 10000 nM, an EC50 [1, 4] of 501 to 10000 nM and an EC50 (mHTT protein) of 501 to 10000 nM. For the same molecule, the “MDCK-MDR1: % Recov A-B” value [2] was 92%, the “MDCK-MDR1: % Recov B-A” value [2] was 97% and the efflux ratio at 120 min, 5 μM (MDR1) was 50. For the same molecule, the Papp A→B at 120 min, 5 μM (MDR1) was 0.21 ×10⁻⁶ cm/s and the Papp B→A at 120 min, 5 μM (MDR1) was 10.7 ×10⁻⁶ cm/s.
`Cn1ccc(-c2ccc(-c3ccc(O[C@@H]4C[C@H]5CCC[C@H](N5)[C@@H]4F)nn3)c(O)c2)n1` (single isomer, unassigned) [68-ENT1] showed an EC50 [1, 3] of 16 to 50 nM, an EC50 [1, 4] of 16 to 50 nM and an EC50 (mHTT protein) of 16 to 50 nM. For the same molecule, the “MDCK-MDR1: % Recov A-B” value [2] was 87%, the “MDCK-MDR1: % Recov B-A” value [2] was 79% and the efflux ratio at 120 min, 5 μM (MDR1) was 6. For the same molecule, the Papp A→B at 120 min, 5 μM (MDR1) was 8.61 ×10⁻⁶ cm/s and the Papp B→A at 120 min, 5 μM (MDR1) was 51.9 ×10⁻⁶ cm/s.
